Where “and” joins values, the source holds several entries; their conditions need not be identical. Identical values can stand only once. Like-named read-outs stand apart in the source and are kept apart here.
Experiments:
[1] = system: SOD1 transgenic mice; conditions: mouse, in vivo
Description: (§1) The drugs were administered by drinking water starting at 60 days of age. The daily dosages were calculated based on a daily water intake of 6 ml. Fresh solutions were prepared once a week with the total consumed volume measured in order to ensure a constant daily and weekly dose. […] The study was done blindly, meaning that the treatment and the preparation of the drugs were conducted by separate individuals.
(§2) Mice were observed daily (including weekends) and weighed weekly. Motor performance was assessed from 40 days of age using the rotarod apparatus to measure the night activity of the mice from 8 p.m.-8 a.m. (LMTB, Berlin). The activity of the animals was recorded individually by a computerized system and assessed daily, including weekends. For statistical evaluation, the rotarod activity was normalized to the mean activity of each animal from day 40 to day 60.
The clinical condition of the mice was monitored daily starting at 40 days. The onset of clinical signs was scored by examining the mice for tremors and/or shaking of the limbs, and the position of one or both hind limbs (hanging rather than splaying out) when the mice were suspended in the air by their tail. The age of clinical onset was determined by the age (days) at which loss of splay or tremors of hind limbs were observed. Examining the mice for the loss of righting reflex determined the end stage of the disease. […]

[2] = system: SOD1 transgenic mice; test: Running wheel (rotarod) night activity of SOD1 transgenic mice; format: in vivo; parameters: unit not given here
Description: (§3) Another group of 15 mice served as controls.
as §1, §2
(§4) Data are expressed as the mean +/−standard error of the mean (SEM). Rotarod testing and weight were compared by analysis of variance (ANOVA). Survival data were analysed by the Mantel-Cox proportional hazard model. Statistical significance was tested by one-way ANOVA followed by post-hoc Student-Newman-Keuls comparison with the SPSS-PC software program (SPSS, Chicago Ill.).

[3] = system: SOD1 transgenic mice; conditions: for Mean Survival: drinking water from 60 days of age, N=15
Description: as §3, §1
The clinical condition of the mice was monitored daily starting at 40 days. The onset of clinical signs was scored by examining the mice for tremors and/or shaking of the limbs, and the position of one or both hind limbs (hanging rather than splaying out) when the mice were suspended in the air by their tail. The age of clinical onset was determined by the age (days) at which loss of splay or tremors of hind limbs were observed. Examining the mice for the loss of righting reflex determined the end stage of the disease. The mice were sacrificed if they could not right themselves within 30 seconds when placed on either side on a flat surface. This decision was made by an independent veterinarian as requested by the animal protocol. The treatment protocol was approved by the Regierungspräsident Tübingen (35/9185.81-3). The treatment and clinical evaluation were conducted by separate individuals, and thus the neurological signs for determining onset and end stage of disease were scored in a blinded manner.
as §4

Structure (SMILES): C#CCN[C@@H]1CCc2ccccc21 [rasagiline, R(+)-N-propargyl-1-aminoindan]
- signs of overt toxicity [1]: did not observe any signs of overt toxicity
- running wheel activity ([2]; rasagiline 0.5 mg/kg, Weeks 9-12): 10087
- running wheel activity ([2]; rasagiline 0.5 mg/kg, Weeks 13-16): 9037.14
- running wheel activity ([2]; rasagiline 0.5 mg/kg, Weeks 17-20): 8124.12
- running wheel activity ([2]; rasagiline 0.5 mg/kg, Weeks 21-24): 6070.08
- running wheel activity ([2]; rasagiline 0.5 mg/kg, Weeks 25-28): 4236.96
- running wheel activity ([2]; rasagiline 0.5 mg/kg, Weeks 29-36): 1196.69
- running wheel activity ([2]; rasagiline 2.0 mg/kg, Weeks 9-12): 11056
- running wheel activity ([2]; rasagiline 2.0 mg/kg, Weeks 13-16): 9999.44
- running wheel activity ([2]; rasagiline 2.0 mg/kg, Weeks 17-20): 8787.09
- running wheel activity ([2]; rasagiline 2.0 mg/kg, Weeks 21-24): 7873.22
- running wheel activity ([2]; rasagiline 2.0 mg/kg, Weeks 25-28): 5902.76
- running wheel activity ([2]; rasagiline 2.0 mg/kg, Weeks 29-36): 2147.29
- Mean Survival ([3]; rasagiline 0.5 mg/kg per day): 224 days and 223.8667 days
- Mean Survival ([3]; rasagiline 2.0 mg/kg per day): 239.8667 days and 239.8677 days
- increase of life span vs controls ([3]; rasagiline 2.0 mg/kg per day, p<0.001): 29 days

Structure (SMILES): Nc1nc2ccc(OC(F)(F)F)cc2s1 [riluzole, 2-amino-6-trifluoromethoxy benzothiazole]
- running wheel activity ([2]; riluzole 30 mg/kg, Weeks 9-12): 9729.58
- running wheel activity ([2]; riluzole 30 mg/kg, Weeks 13-16): 7556.57
- running wheel activity ([2]; riluzole 30 mg/kg, Weeks 17-20): 7033.85
- running wheel activity ([2]; riluzole 30 mg/kg, Weeks 21-24): 4687.05
- running wheel activity ([2]; riluzole 30 mg/kg, Weeks 25-28): 2696.11
- running wheel activity ([2]; riluzole 30 mg/kg, Weeks 29-36): 1249.13

Source: US20040127577A1 (priority 2002, published 2004)
